Here are results for nine compounds from publication PMC6117704, “Novel Natural Angiotensin Converting Enzyme (ACE)-Inhibitory Peptides Derived from Sea Cucumber-Modified Hydrolysates by Adding Exogenous Proline and a Study of Their Structure–Activity Relationship” (Marine Drugs, 2018).

Where two headings read alike, the source gives them in different places. Peptide text beside a SMILES is read from it.

The target in test [1] is T1, rabbit-lung ACE (Oryctolagus cuniculus, UniProt P12822).
T1 construct: rabbit-lung ACE and Sephadex G-15 were purchased from Sigma Chemical Ltd; purchased Sigma Chemical Ltd (St. Louis, MO, USA); host or cells: rabbit lung tissue
T1 sequence (P12822 34-1310): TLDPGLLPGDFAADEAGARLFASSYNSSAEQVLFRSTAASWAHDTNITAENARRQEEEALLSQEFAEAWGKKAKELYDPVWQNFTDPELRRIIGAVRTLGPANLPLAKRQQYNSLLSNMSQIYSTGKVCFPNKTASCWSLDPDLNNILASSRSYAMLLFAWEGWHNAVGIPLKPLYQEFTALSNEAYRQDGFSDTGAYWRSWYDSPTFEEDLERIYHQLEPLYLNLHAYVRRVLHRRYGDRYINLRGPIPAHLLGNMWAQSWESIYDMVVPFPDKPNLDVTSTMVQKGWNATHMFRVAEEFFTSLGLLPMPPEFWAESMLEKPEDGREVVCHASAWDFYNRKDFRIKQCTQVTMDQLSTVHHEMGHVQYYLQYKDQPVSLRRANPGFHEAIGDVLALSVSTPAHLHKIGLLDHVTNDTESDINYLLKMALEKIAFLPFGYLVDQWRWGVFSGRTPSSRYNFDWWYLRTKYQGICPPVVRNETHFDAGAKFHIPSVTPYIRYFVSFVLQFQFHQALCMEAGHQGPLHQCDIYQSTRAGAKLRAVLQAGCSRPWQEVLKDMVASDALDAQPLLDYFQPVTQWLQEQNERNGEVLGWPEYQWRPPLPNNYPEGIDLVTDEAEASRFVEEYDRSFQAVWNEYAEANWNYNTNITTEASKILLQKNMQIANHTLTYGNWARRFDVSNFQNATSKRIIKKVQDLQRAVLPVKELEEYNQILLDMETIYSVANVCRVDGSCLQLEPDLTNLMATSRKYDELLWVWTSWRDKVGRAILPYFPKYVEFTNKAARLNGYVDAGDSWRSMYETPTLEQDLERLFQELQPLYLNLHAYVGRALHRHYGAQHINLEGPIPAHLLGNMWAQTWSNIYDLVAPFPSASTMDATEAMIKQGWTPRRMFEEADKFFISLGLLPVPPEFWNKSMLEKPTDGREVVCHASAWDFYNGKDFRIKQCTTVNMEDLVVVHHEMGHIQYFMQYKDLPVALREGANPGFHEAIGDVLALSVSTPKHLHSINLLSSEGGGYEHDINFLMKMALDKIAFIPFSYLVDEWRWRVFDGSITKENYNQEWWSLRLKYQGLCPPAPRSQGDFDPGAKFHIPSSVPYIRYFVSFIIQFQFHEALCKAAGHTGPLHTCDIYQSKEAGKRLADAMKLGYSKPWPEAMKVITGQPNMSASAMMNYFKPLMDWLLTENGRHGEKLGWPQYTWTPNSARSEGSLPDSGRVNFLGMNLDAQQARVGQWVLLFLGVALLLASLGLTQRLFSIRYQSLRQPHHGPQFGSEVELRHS
Briefly: ACE-inhibitory activity of synthetic peptides. In kind it is biochemical. As to conditions: synthesized peptides; HHL substrate (8.3 mM Hip-His-Leu in 50 mM sodium borate, 0.5 M NaCl, pH 8.3), ACE 25 mU/mL, pre-incubation 37 °C 10 min, 60 min, UV 228 nm; mean ± SD (n = 3). How it is done: Sea cucumber (Acaudina molpadioidea) was purchased from a local market (Qingdao, China) and its water content was determined to be 12.65% per 20 g on average. Hippuryl histidyl leucine (HHL), rabbit-lung ACE and Sephadex G-15 were purchased from Sigma Chemical Ltd (St. Louis, MO, USA). Papain (from papaya) and trypsin (from bovine sources) were purchased from Nanning Pangbo Biological Engineering Ltd (Nanning, China). O-Pthaldialdehyde (OPA) was purchased from Beijing Soularbio Technology Ltd. (Beijing, China). Proline (PubChem CID 145742), valine (PubChem CID 6287), tyrosine (PubChem CID 6057), tryptophan (PubChem CID 6305), leucine (PubChem CID 6106) and phenylalanine (PubChem CID 6140) were purchased from Sinopharm Chemical Reagent Ltd. (Shanghai, China). All other chemicals were obtained from local commercial sources and were of the highest purity available.
The ACE-inhibitory activity of the hydrolysates was measured according to a previously reported protocol with slight modifications. Briefly, a sample solution with 40 μL of ACE solution (25 mU/mL) was pre-incubated at 37 °C for 10 min. After this, the mixture was incubated with 50 μL of the substrate (8.3 mM Hip-His-Leu in 50 mM sodium borate buffer containing 0.5 M NaCl at pH of 8.3) for 60 min at the same temperature. The reaction was terminated by the addition of 1.0 M HCl (200 μL). The absorbance of hippuric acid in the incubated solution was determined at 228 nm using a UV-spectrophotometer (UV-2550, Shimadzu, Kyoto, Japan). The IC50 value was defined as the concentration of inhibitor that was needed to inhibit 50% of the ACE activity.
The molecular weights of peptides in the filtered hydrolysates were analyzed by MALDI-TOF (TOF 4800, Micromass Company, Manchester, UK). The amino acid sequences were determined in the positive ion mode by de novo sequencing. Subsequently, the peptides were synthesized using the solid phase method and purified by HPLC (ChinaPeptides Co. Ltd., Shanghai, China).

For test [2], the system named is ACE. The arrangement: method as in 8 sources, ref [4]; PMID 29426427; doi:10.1016/j.foodchem.2018.01.047; 4. Sangsawad P. Roytrakul S. Choowongkomon K. Kitts D.D. Chen X.M. Meng G. Lichan E. Yongsawatdigul J. Transepithelial transport across Caco-2 cell monolayers of angiotensin converting enzyme (ACE) in ||| ref [20] = [20]; PMID 29426427; doi:10.1016/j.jff.2016.12.005; 20. Sangsawad P. Roytrakul S. Yongsawatdigul J. Angiotensin converting enzyme (ACE) inhibitory peptides derived from the simulated in vitro gastrointestinal digestion of cooked chicken breast J. Funct ||| ref [21] = [21]; doi:10.1016/j.idairyj.2006.05.011; 21. Otte J. Shalaby S.M. Zakora M. Pripp A.H. El-Shabrawy S.A. Angiotensin-converting enzyme inhibitory activity of milk protein hydrolysates: Effect of substrate, enzyme and time of hydrolysis Int. D ||| ref [11] = [11]; doi:10.1080/10942912.2011.642048; 11. Sun H. Li T.J. Zhao X.H. ACE inhibition and enzymatic resistance in vitro of a casein hydrolysate subjected to plastein reaction in the presence of extrinsic proline and ethanol- or methanol-eater ||| ref [26] = [26]; PMID 24054237; doi:10.1016/j.foodchem.2013.07.067; 26. Ngo D.H. Ryu B. Kim S.K. Active peptides from skate ( Okamejei kenojei ) skin gelatin diminish angiotensin-I converting enzyme activity and intracellular free radical-mediated oxidation Food Chem. ||| ... The following applies: cited from earlier work.

As for `CC(C)[C@H](NC(=O)[C@H](CC(N)=O)NC(=O)[C@@H]1CCCN1)C(=O)N[C@@H](C)C(=O)O` [PNVA] (H-PNVA-OH), the midpoint of inhibition in test [1], the IC50, lay at 8.18 ± 0.24 µM.
With MVGSAPGVL, in test [2] (ref [26]), the “ACE-inhibitory activity (in words)” value was “high ACE-inhibitory activity”.
AGPPGSDGQPGAK: the IC50 (as a rule, the concentration that inhibits the measured activity by half) in test [2] (ref [38]) is 420 ± 20 µM.
In the case of `CC(C)C[C@H](NC(=O)[C@H](CC(N)=O)NC(=O)[C@@H]1CCCN1)C(=O)NCC(=O)O` [PNLG] (H-PNLG-OH), the IC50 in test [1] stood at 13.2 ± 0.39 µM.
Regarding LGPLGHQ, the “ACE-inhibitory activity (in words)” value in test [2] (ref [26]) was “high ACE-inhibitory activity”.
With VYPFPGPIPNSLPQNIPP, the “ACE-inhibitory activity (in words)” value in test [2] (ref [21]) is reported as “high ACE-inhibitory activity”.
Take KPLL: the “ACE-inhibitory activity (in words)” value in test [2] (ref [20]) is “high ACE-inhibitory activity”.
Compound `CC(C)C[C@H](NC(=O)[C@@H](N)CC(N)=O)C(=O)NCC(=O)O` [NLG] (H-Asn-Leu-Gly-OH) showed an IC50 in test [1] of 17.4 ± 0.89 µM.
Same read-out and setting: next, `CC(C)[C@H](NC(=O)[C@@H](N)CC(N)=O)C(=O)N[C@@H](C)C(=O)O` [NVA] (H-Asn-Val-Ala-OH): 12.7 ± 1.5 µM.
